This is an account of results in patent US20240217977A1, “DIAZEPANONE-FUSED PYRIMIDINE COMPOUNDS, COMPOSITIONS AND MEDICINAL APPLICATIONS THEREOF” (Blueprint Medicines Corporation, priority 2021, published 2024).

Common to all, as to type: cell-based
Assay [1] addresses HER2 (A775_G775insYVMA) expressing Ba/F3 stable cell line (Homo sapiens, UniProt P04626, DUP772-775, cells depend on it). Description: Cellular proliferation (Alamar Blue) assay, HER2 (A775_G775insYVMA) Ba/F3. The conditions noted are these: 72 hr incubation, read-out: YVMA IC50. The method, then:
(§1) Example 2: Cellular Proliferation (Alamar Blue) Assays
(§2) • 1. EGFR(D770_N771insSVD) expressing Ba/F3 stable cell line • 2. EGFR (A767_dupASV) expressing Ba/F3 stable cell line • 3. A431 cells • 4. EGFR (H773insNPH) expressing Ba/F3 stable cell line • 5. HER2 (A775_G775insYVMA) expressing Ba/F3 stable cell line
(§3) • 1. Seed cells at 5000 for A431 and 15,000 cells for Ba/F3 in 100 μL/well in complete media (for A431: DMEM with 10% FBS and for Ba/F3 cells: RPMI with 10% FBS) in • 96-well tissue culture plate. Leave outer wells without cells for background measurements. Incubate at 37 degree Celsius in 5% C02 humidified incubator for 16-18 hours. • 2. Add 0.025 ml of 5× concentration compound dilution or DMSO control. Final compound concentration range is 10-0.0005 μM prepared in 3-fold serial dilutions. Incubate for 72 hr at 37 degree Celsius in 5% CO2 humidified incubator. • 3. Add 0.0125 ml Alamar Blue™ reagent to each well with multi-channel pipette and tap gently on each side of the plate to mix. Incubate for 3 hours at 37 degree Celsius in 5% CO2 humidified incubator. • 4. Read plates on fluorescence reader (Tecan Spark Control, Device: Spark, Serial #: 1801006040) at 540 nm excitation, 590 nm emission wavelength. • 5. Data analysis was performed using XLfit 5.5.0.5.

The target of assay [2] is EGFR (A767_dupASV) expressing Ba/F3 stable cell line (Homo sapiens, UniProt P00533, DUP767-769, cells depend on it). In words: Cellular proliferation (Alamar Blue) assay, EGFR (A767_dupASV) Ba/F3. The following applies: 72 hr incubation, read-out: A767 IC50. The method, then:
as §1, §2, §3

Assay [3] has as its target EGFR(D770_N771insSVD) expressing Ba/F3 stable cell line (Homo sapiens, UniProt P00533, DUP768-770, cells depend on it). In words: Cellular proliferation (Alamar Blue) assay, EGFR(D770_N771insSVD) Ba/F3. The following applies: 72 hr incubation, read-out: D770 IC50. How it is done: as §1, §2, §3
The next assay deals with A431 cells. In words: Cellular proliferation (Alamar Blue) assay, A431 cells. The conditions noted are these: Homo sapiens, A-431, 72 hr incubation. How it is done: as §1, §2, §3
The target in assay [4] is EGFR (H773insNPH) expressing Ba/F3 stable cell line (Homo sapiens, UniProt P00533, DUP771-773, cells depend on it). In words: Cellular proliferation (Alamar Blue) assay, EGFR (H773insNPH) Ba/F3. The conditions noted are these: 72 hr incubation, read-out: NPH IC50. The method, then: as §1, §2, §3
Chain of EGFR (H773insNPH) expressing Ba/F3 stable cell line (P00533 with tags, fused parts or gaps DUP771-773): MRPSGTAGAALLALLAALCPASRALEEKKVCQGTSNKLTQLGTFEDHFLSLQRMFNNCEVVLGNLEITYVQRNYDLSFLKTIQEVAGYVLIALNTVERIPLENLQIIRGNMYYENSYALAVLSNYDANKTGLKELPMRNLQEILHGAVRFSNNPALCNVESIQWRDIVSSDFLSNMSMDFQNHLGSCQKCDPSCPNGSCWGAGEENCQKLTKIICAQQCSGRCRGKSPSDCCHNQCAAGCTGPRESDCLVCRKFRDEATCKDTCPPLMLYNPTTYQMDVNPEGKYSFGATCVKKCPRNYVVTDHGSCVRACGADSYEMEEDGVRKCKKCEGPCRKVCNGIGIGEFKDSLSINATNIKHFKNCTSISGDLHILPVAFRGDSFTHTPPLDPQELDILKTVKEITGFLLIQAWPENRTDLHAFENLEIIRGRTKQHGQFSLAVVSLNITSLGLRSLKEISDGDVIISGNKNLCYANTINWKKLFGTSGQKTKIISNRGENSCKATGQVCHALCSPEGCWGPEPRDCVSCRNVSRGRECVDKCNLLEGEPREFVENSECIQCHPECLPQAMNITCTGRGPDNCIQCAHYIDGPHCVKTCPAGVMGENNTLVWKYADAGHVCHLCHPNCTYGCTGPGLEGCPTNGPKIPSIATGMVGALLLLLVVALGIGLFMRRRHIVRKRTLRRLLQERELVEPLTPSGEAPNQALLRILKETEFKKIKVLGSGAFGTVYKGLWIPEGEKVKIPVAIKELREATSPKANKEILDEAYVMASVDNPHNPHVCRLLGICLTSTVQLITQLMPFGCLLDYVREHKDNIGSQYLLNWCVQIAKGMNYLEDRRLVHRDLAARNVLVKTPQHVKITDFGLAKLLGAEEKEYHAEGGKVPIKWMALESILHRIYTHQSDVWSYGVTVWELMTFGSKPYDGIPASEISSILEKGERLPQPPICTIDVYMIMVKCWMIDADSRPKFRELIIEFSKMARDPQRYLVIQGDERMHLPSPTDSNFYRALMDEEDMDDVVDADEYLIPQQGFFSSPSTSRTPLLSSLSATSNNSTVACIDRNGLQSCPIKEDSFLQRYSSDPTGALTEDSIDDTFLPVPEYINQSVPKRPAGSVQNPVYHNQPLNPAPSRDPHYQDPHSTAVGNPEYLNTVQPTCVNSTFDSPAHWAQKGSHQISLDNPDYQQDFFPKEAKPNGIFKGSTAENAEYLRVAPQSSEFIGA

Chain of EGFR (A767_dupASV) expressing Ba/F3 stable cell line (P00533 with tags, fused parts or gaps DUP767-769): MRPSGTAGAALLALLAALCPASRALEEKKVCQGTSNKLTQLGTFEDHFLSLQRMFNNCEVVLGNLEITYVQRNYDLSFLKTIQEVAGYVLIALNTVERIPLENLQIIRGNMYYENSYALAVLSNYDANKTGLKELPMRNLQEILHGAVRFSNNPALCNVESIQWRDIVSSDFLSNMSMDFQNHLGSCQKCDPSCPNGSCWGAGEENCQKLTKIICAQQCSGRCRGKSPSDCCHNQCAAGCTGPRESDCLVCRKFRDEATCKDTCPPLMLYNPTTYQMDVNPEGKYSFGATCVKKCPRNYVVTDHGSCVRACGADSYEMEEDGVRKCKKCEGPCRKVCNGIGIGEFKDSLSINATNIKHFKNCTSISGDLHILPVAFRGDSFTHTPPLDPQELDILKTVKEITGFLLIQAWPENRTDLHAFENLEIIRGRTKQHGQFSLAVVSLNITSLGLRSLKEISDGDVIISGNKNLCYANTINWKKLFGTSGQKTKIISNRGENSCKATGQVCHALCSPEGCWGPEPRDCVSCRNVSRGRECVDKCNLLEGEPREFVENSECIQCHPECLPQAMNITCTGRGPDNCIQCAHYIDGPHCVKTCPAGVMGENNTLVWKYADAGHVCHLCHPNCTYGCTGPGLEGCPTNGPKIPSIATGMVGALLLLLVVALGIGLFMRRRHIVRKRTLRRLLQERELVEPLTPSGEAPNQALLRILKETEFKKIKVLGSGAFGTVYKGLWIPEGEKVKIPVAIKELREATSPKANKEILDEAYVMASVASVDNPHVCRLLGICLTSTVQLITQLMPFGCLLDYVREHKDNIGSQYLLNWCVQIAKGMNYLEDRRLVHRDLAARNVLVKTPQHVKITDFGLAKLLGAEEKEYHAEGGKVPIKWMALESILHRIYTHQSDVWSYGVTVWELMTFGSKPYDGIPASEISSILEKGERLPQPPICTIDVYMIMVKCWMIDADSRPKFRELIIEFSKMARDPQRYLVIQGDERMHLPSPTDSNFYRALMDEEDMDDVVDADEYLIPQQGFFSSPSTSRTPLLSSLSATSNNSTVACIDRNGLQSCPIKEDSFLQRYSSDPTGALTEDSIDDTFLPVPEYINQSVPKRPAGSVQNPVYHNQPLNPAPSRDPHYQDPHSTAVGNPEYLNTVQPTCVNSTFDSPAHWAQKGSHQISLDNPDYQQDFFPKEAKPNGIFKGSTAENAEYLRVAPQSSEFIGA
Chain of HER2 (A775_G775insYVMA) expressing Ba/F3 stable cell line (P04626 with tags, fused parts or gaps DUP772-775): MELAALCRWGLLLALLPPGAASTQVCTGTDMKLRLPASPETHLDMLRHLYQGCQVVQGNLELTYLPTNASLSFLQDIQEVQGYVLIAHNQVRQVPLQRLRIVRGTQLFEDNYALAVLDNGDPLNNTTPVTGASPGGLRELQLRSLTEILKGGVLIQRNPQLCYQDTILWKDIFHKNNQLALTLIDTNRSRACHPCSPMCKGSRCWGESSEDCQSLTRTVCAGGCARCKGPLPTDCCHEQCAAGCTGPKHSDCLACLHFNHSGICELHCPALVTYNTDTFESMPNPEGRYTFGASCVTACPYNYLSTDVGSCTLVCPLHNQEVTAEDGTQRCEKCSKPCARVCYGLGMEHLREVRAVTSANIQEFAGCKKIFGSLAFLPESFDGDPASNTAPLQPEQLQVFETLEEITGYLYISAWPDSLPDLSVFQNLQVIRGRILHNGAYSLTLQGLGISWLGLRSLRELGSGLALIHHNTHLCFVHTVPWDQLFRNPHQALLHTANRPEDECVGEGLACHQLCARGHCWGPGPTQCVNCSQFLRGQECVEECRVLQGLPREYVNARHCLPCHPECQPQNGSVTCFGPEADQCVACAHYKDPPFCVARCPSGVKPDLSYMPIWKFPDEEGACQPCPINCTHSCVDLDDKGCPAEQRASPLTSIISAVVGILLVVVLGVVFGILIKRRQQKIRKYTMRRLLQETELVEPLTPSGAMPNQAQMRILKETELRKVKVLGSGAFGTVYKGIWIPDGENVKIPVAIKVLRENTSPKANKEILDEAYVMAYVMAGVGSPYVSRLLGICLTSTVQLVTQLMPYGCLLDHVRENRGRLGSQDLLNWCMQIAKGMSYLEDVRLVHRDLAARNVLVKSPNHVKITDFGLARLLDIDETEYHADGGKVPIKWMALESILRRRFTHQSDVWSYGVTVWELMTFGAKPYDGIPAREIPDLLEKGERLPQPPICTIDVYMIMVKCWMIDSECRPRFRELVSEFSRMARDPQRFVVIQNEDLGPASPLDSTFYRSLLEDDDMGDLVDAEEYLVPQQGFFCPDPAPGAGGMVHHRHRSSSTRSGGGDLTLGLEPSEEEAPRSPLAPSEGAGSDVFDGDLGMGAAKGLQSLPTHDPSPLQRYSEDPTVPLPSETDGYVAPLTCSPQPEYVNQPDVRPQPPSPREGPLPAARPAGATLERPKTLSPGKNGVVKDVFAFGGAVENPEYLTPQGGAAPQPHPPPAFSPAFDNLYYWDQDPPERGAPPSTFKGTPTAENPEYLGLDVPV
Chain of EGFR(D770_N771insSVD) expressing Ba/F3 stable cell line (P00533 with tags, fused parts or gaps DUP768-770): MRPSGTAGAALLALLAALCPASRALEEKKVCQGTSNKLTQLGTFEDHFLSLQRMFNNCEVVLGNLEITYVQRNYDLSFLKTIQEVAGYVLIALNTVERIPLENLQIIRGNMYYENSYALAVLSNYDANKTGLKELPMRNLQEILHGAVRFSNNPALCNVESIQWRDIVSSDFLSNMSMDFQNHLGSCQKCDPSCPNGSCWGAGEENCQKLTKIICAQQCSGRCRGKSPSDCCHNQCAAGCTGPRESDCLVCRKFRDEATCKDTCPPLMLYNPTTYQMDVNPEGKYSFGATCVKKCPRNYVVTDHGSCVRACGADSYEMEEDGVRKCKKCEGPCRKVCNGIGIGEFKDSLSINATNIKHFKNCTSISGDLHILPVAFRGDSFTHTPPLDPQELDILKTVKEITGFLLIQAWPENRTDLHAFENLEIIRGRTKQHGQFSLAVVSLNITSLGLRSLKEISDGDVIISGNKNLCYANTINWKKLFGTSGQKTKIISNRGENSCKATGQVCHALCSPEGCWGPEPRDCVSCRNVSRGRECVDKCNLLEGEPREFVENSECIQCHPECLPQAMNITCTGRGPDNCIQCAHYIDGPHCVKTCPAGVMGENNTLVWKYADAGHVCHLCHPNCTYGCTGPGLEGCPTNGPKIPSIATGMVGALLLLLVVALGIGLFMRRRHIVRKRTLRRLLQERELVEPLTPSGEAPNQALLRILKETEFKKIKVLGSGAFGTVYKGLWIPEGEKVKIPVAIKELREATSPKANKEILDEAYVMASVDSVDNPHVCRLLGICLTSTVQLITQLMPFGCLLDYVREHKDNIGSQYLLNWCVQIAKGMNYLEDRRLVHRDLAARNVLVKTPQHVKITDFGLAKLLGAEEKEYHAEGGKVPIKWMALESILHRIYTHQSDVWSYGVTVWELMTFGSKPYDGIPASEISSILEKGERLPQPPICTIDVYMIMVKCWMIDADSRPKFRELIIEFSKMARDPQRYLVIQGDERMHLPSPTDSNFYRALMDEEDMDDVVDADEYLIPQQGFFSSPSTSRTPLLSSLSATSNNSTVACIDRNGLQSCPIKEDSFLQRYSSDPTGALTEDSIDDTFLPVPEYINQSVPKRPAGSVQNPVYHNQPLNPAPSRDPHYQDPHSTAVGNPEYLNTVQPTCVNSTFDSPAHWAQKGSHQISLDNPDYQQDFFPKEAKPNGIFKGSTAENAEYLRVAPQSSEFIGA

For `C=CC(=O)Nc1cccc(N2C(=O)N(Cc3ccccc3)CCc3cnc(Nc4ccc(F)cc4)nc32)c1` [Compound 18, N-(3-(7-benzyl-2-((4-fluorophenyl)amino)-8-oxo-5,6,7,8-tetrahydro-9H-pyrimido[4,5-d][1,3]diazepin-9-yl)phenyl)acrylamide], the GI50 was determined as 31 nM in assay [1], 55 nM in assay [2], 45 nM in assay [3] and 152 nM in assay [4]. The IC50 in the assay with A431 cells is 64 nM.
The like results for `C=CC(=O)Nc1cccc(N2C(=O)N(Cc3ccccc3)CCc3cnc(Nc4ccc(N5CCOCC5)nc4)nc32)c1` [Compound 19, N-(3-(7-benzyl-2-((6-morpholinopyridin-3-yl)amino)-8-oxo-5,6,7,8-tetrahydro-9H-pyrimido[4,5-d][1,3]diazepin-9-yl)phenyl)acrylamide] were, in that order, 24 nM, 10 nM, 14 nM, 25 nM and greater than 10000 nM.
For the molecule `C=CC(=O)Nc1cccc(N2C(=O)N(Cc3ccccc3)CCc3cnc(Nc4ccc(F)cc4OC)nc32)c1` [Compound 21, N-(3-(7-benzyl-2-((4-fluoro-2-methoxyphenyl)amino)-8-oxo-5,6,7,8-tetrahydro-9H-pyrimido[4,5-d][1,3]diazepin-9-yl)phenyl)acrylamide], the GI50 in assay [1] was found to be 44 nM; in assay [2], 97 nM; in assay [3] it was 103 nM; in assay [4], 102 nM. For the same molecule, the IC50 in the assay with A431 cells is 40 nM.
The corresponding values for `C=CC(=O)Nc1cccc(N2C(=O)N(Cc3ccccc3)CCc3cnc(Nc4ccc(N5CCN(C)CC5)c(C)c4)nc32)c1` [Compound 22, N-(3-(7-benzyl-2-((3-methyl-4-(4-methylpiperazin-1-yl)phenyl)amino)-8-oxo-5,6,7,8-tetrahydro-9H-pyrimido[4,5-d][1,3]diazepin-9-yl)phenyl)acrylamide] are 9 nM, 33 nM, 31 nM, 41 nM and 25 nM.
As to `C=CC(=O)Nc1cccc(N2C(=O)N(Cc3ccccc3)CCc3cnc(Nc4ccc(F)nc4)nc32)c1` [Compound 26, N-(3-(7-benzyl-2-((6-fluoropyridin-3-yl)amino)-8-oxo-5,6,7,8-tetrahydro-9H-pyrimido[4,5-d][1,3]diazepin-9-yl)phenyl)acrylamide], the GI50 is 33 nM in assay [1], 67 nM in assay [2], 35 nM in assay [3] and 90 nM in assay [4]. Also, it took 134 nM to reach half-maximal inhibition with A431 cells (IC50).
The corresponding values for `C=CC(=O)Nc1cccc(N2C(=O)N(Cc3ccccc3)CCc3cnc(Nc4cn(C5COC5)nc4Cl)nc32)c1` [Compound 28, N-(3-(7-benzyl-2-((3-chloro-1-(oxetan-3-yl)-1H-pyrazol-4-yl)amino)-8-oxo-5,6,7,8-tetrahydro-9H-pyrimido[4,5-d][1,3]diazepin-9-yl)phenyl)acrylamide] are 8 nM, 13 nM, 12 nM, 32 nM and 9 nM.
The corresponding values for `C=CC(=O)Nc1cccc(N2C(=O)N(c3ccccc3)CCc3cnc(Nc4cn(C)nc4Cl)nc32)c1` [Compound 29, N-(3-{2-[(3-chloro-1-methyl-1H-pyrazol-4-yl)amino]-8-oxo-7-phenyl-5H,6H,7H,8H,9H-pyrimido[4,5-d][1,3]diazepin-9-yl}phenyl)prop-2-enamide] are 67 nM, 36 nM, 45 nM, 25 nM and 16 nM.
The like results for `Cn1cc(Nc2ncc3c(n2)N(c2cccc(NC(=O)/C=C/CF)c2)C(=O)N(c2ccccc2)CC3)c(Cl)n1` [Compound 33, (E)-N-(3-(2-((3-chloro-1-methyl-1H-pyrazol-4-yl)amino)-8-oxo-7-phenyl-5,6,7,8-tetrahydro-9H-pyrimido[4,5-d][1,3]diazepin-9-yl)phenyl)-4-fluorobut-2-enamide] were, in that order, 602 nM, 128 nM, 239 nM, 131 nM and greater than 10000 nM.
Take `C=CC(=O)Nc1cccc(N2C(=O)N(c3ccccc3)CCc3cnc(Nc4cn(C)nc4F)nc32)c1` [Compound 35, N-(3-(2-((3-fluoro-1-methyl-1H-pyrazol-4-yl)amino)-8-oxo-7-phenyl-5,6,7,8-tetrahydro-9H-pyrimido[4,5-d][1,3]diazepin-9-yl)phenyl)acrylamide]: the GI50 in assay [1] stood at 1060 nM; in assay [2], 117 nM; in assay [3], 122 nM; in assay [4] it was 138 nM. In the assay on A431 cells, the IC50 is greater than 10000 nM.
On to `C=CC(=O)Nc1cccc(N2C(=O)N(c3ccccc3)CCc3cnc(Nc4ccc(N5CCN(C)CC5)cc4)nc32)c1` [Compound 37, N-(3-(2-((4-(4-methylpiperazin-1-yl)phenyl)amino)-8-oxo-7-phenyl-5,6,7,8-tetrahydro-9H-pyrimido[4,5-d][1,3]diazepin-9-yl)phenyl)acrylamide], for which the GI50 in assay [1] was 138 nM; in assay [2], 38 nM; in assay [3] it was 89 nM; in assay [4], 100 nM. The molecule further showed an IC50 in the assay on A431 cells of 7 nM.
`C=CC(=O)Nc1cccc(N2C(=O)N(c3ccccc3)CCc3cnc(Nc4ccc(N5CCN(C)CC5)cc4OC)nc32)c1` [Compound 39, N-(3-(2-((2-methoxy-4-(4-methylpiperazin-1-yl)phenyl)amino)-8-oxo-7-phenyl-5,6,7,8-tetrahydro-9H-pyrimido[4,5-d][1,3]diazepin-9-yl)phenyl)acrylamide]: the GI50 in assay [1] came to 131 nM; in assay [2] it was 39 nM; in assay [3], 92 nM; in assay [4], 88 nM. Besides, the midpoint of inhibition in the assay with A431 cells, the IC50, lay at 7 nM.
The corresponding values for `C=CC(=O)Nc1cccc(N2C(=O)N(c3ccccc3)CCc3cnc(Nc4ccc(N5CCN(C)CC5)c(C)c4)nc32)c1` [Compound 41, N-(3-(2-((3-methyl-4-(4-methylpiperazin-1-yl)phenyl)amino)-8-oxo-7-phenyl-5,6,7,8-tetrahydro-9H-pyrimido[4,5-d][1,3]diazepin-9-yl)phenyl)acrylamide] are 29 nM, 32 nM, 41 nM, 27 nM and 102 nM.
The like results for `C=CC(=O)Nc1cccc(N2C(=O)N(c3ccc(F)cc3)CCc3cnc(Nc4cn(C)nc4Cl)nc32)c1` [Compound 42, N-(3-(2-((3-chloro-1-methyl-1H-pyrazol-4-yl)amino)-7-(4-fluorophenyl)-8-oxo-5,6,7,8-tetrahydro-9H-pyrimido[4,5-d][1,3]diazepin-9-yl)phenyl)acrylamide] were, in that order, 91 nM, 75 nM, 110 nM, 3 nM and 23 nM.
Consider `C=CC(=O)Nc1cccc(N2C(=O)N(c3ccccc3)CCc3cnc(Nc4cccnc4F)nc32)c1` [Compound 43, N-(3-{12-[(2-fluoropyridin-3-yl)amino]-8-oxo-7-phenyl-5H,6H,7H,8H,9H-pyrimido[4,5-d][1,3]diazepin-9-yl}phenyl)prop-2-enamide], for which the GI50 was found to be 1360 nM in assay [1], 146 nM in assay [2], 239 nM in assay [3] and 193 nM in assay [4]. In the assay on A431 cells, this molecule returned an IC50 greater than 10000 nM.
